Legend:
[1] = biological target: T1, human neutrophil elastase (HNE) (Homo sapiens, UniProt P08246); assay: Specificity assay, human neutrophil elastase; format: biochemical; conditions: 2 h enzyme-inhibitor pre-incubation; read-out: HLE activity (IC50) in the specificity assay
T1 construct: purchased Sigma
T1 sequence (P08246 30-267): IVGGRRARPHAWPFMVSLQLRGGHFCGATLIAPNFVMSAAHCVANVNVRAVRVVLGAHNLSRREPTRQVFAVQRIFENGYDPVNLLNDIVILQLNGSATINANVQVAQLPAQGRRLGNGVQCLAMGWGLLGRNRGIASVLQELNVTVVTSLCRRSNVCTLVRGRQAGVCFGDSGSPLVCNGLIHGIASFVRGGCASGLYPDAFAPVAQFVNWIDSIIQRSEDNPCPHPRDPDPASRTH
Method: (§1) The specificities of compounds of the present disclosure were determined against a variety of serine proteases: human neutrophil elastase (HNE), porcine pancreatic elastase (PPE) and human pancreatic chymotrypsin and one cysteine protease: human liver cathepsin B. In all cases a 96-well plate format protocol using colorimetric p-nitroaniline (pNA) substrate specific for each enzyme was used as described previously (PCT Patent Application No. WO 00/09543) with some modifications to the serine protease assays. All enzymes were purchased from Sigma while the substrates were from Bachem.
(§2) Each assay included a 2 h enzyme-inhibitor pre-incubation at room temperature followed by addition of substrate and hydrolysis to ˜30% conversion as measured on a Spectramax Pro microplate reader. Compound concentrations varied from 100 to 0.4 μM depending on their potency.
(§3) 50 mM Tris(hydroxymethyl)aminomethane hydrochloride (Tris-HCl) pH 8, 0.5 M Sodium Sulfate (Na2SO4), 50 mM NaCl, 0.1 mM EDTA, 3% DMSO, 0.01% Tween-20 with:
(§4) 133 μM succ-AAA-pNA and 20 nM HNE or 8 nM PPE; 100 μM succ-AAPF-pNA and […] Chymotrypsin.
(§5) The percentage of inhibition was calculated using the formula: [1−((UVinh−UVblank)/(UVctl−UVblank))]×100
(§6) A non-linear curve fit was applied to the inhibition-concentration data, and the 50% effective concentration (IC50) was calculated by the use of Excel Xl-fit software.

[2] = biological target: T2, HCV NS3/4A protease complex, H77 strain (Hepatitis C virus genotype 1a, UniProt P27958, C1454S/C1711G); assay: FRET peptide assay to monitor HCV NS3/4A proteolytic activity (H77 strain); format: biochemical, HCV genotype 1a
T2 construct: DNA encoding the recombinant HCV NS3/4A protease complex (amino acids 1027 to 1711) for these strains; His tag (inferred from pET21b vector and Ni-NTA purification); made in house; host or cells: Escherichia coli BL21 (DE3), pET21b
Text: HCV NS3 protease complexes, derived from the BMS strain, H77 strain or J4L6S strain, were generated, as described below. These purified recombinant proteins were generated for use in a homogeneous assay (see below) to provide an indication of how effective compounds of the present disclosure would be in inhibiting HCV NS3 proteolytic activity.
Serum from an HCV-infected patient was obtained from Dr. T. Wright, San Francisco Hospital. An engineered full-length cDNA (compliment deoxyribonucleic acid) template of the HCV genome (BMS strain) was constructed from DNA fragments obtained by reverse transcription-PCR(RT-PCR) of serum RNA (ribonucleic acid) and using primers selected on the basis of homology between other genotype 1a strains. From the determination of the entire genome sequence, a genotype 1a was assigned to the HCV isolate according to the classification of Simmonds et al. (See P Simmonds, K A Rose, S Graham, S W Chan, F McOmish, B C Dow, E A Follett, P L Yap and H Marsden, J. Clin. Microbiol., 31(6), 1493-1503 (1993)). […]

[3] = biological target: T3, porcine pancreatic elastase (PPE) (Sus scrofa, UniProt P00772); assay: Specificity assay, porcine pancreatic elastase; format: biochemical; conditions: 2 h enzyme-inhibitor pre-incubation
T3 construct: purchased Sigma
Method: as §1, §2, §3, §4, §5, §6

T3 sequence (P00772 27-266): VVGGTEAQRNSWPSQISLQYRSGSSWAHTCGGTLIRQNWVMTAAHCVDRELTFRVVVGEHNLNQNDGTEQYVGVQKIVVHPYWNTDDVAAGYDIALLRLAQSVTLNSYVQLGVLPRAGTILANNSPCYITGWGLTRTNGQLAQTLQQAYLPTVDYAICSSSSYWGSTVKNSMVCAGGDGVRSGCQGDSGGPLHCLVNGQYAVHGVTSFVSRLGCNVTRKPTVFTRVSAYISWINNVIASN
T2 sequence (P27958 1027-1711 C1454S/C1711G, one chain of several): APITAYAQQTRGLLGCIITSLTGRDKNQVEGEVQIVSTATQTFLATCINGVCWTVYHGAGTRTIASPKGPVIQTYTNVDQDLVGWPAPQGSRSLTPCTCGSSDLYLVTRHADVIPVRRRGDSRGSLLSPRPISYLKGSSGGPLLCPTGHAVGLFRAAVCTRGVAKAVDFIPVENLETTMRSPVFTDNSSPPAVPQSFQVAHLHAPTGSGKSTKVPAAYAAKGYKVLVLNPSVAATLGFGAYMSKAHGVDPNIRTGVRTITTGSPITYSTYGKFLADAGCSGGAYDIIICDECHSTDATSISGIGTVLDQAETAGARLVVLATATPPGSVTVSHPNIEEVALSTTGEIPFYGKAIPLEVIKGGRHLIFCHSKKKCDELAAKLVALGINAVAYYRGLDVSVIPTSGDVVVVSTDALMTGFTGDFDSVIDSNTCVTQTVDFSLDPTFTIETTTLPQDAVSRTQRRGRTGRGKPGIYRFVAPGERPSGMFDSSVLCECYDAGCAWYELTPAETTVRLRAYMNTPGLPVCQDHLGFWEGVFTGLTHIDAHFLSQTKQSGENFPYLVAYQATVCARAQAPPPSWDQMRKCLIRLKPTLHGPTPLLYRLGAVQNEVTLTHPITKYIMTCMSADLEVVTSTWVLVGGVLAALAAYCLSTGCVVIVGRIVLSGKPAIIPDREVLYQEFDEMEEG

C=C[C@@H]1C[C@]1(NC(=O)[C@@H]1C[C@@H](OC(=O)c2ccccc2)CN1C(=O)[C@@H](NC(=O)OC(C)(C)C)C(C)(C)C)C(=O)NS(=O)(=O)C1CC1 [Compound 1]
IC50 [1]: > 200 µM | IC50 [2]: 0.006 µM | IC50 [3]: > 200 µM

From patent US7935670B2, “Hepatitis C virus inhibitors” (Bristol-Myers Squibb Company, priority 2006, dated 2011)
